This is an account of results in patent US20260042731A1, “(2,4-DICHLOROPHENOXY)ACETIC ACID ANALOGS” (CORTEVA AGRISCIENCE LLC, priority 2022, published 2026).

The subject of data set [1] is Corn (ZEAMX). Kind of data set: Greenhouse post-emergence mixture trials, percent visual control. The format is in vivo.
The subject of data set [2] is Common Lambsquarters (CHEAL). The description is as above. Format: in vivo. Conditions: CHEAL, 21 DAA.
Data set [3] relates to Velvetleaf (ABUTH). The data set is described as above. Format: in vivo. Conditions: Abutilon theophrasti, post-emergence, 504 h; for pest or weed control at 5 g/ha: Arylex 5 g ai or ae/ha alone.
For data set [4], the system named is Amaranthus rudis (AMATA), tall water hemp. Kind of data set: Postemergence herbicide evaluation, growth of Amaranthus rudis (AMATA). The format is in vivo. Conditions: Amaranthus tuberculatus, post-emergence; for pest or weed control at 280 g/ha: 280 g ae/ha; for pest or weed control at 560 g/ha: 560 g ae/ha.
In data set [5] the test system is Ambrosia artemisiifolia (AMBEL), common ragweed. Kind of data set: Postemergence herbicide evaluation, growth of Ambrosia artemisiifolia (AMBEL). Conditions: Ambrosia artemisiifolia, post-emergence; for pest or weed control at 280 g/ha: 280 g ae/ha; for pest or weed control at 560 g/ha: 560 g ae/ha. The format is in vivo.
In data set [6] the test system is Abutilon theophrasti (ABUTH), velvetleaf. Kind of data set: Postemergence herbicide evaluation, growth of Abutilon theophrasti (ABUTH). Format: in vivo. Conditions: Abutilon theophrasti, post-emergence; for pest or weed control at 280 g/ha: 280 g ae/ha; for pest or weed control at 560 g/ha: 560 g ae/ha.
Data set [7] deals with Chenopodium album (CHEAL), common lambsquarters. Kind of data set: Postemergence herbicide evaluation, growth of Chenopodium album (CHEAL). Format: in vivo. The settings on record: Chenopodium album, post-emergence; for pest or weed control at 280 g/ha: 280 g ae/ha; for pest or weed control at 560 g/ha: 560 g ae/ha.
Data set [8] deals with glyphosate resistant Conyza canadensis (L.) (ERICA), horseweed. Briefly: Postemergence herbicide evaluation, growth of Conyza canadensis (ERICA). Format: in vivo. The settings on record: Erigeron canadensis, post-emergence; for pest or weed control at 280 g/ha: 280 g ae/ha; for pest or weed control at 560 g/ha: 560 g ae/ha.
The nature of data set [9]: Volatility of compounds measured by thermogravimetric analysis (TGA). The format is physicochemical.
Data set [10] relates to weeds ABUTH, AMATA, AMBEL, CHEAL, ERICA. Briefly: Postemergence herbicide evaluation, overall average % weed control across ABUTH, AMATA, AMBEL, CHEAL and ERICA. The settings on record: post-emergence, average over five weeds, read-out: Overall Ave % Weed Control; for pest or weed control at 560 g/ha: 560 g ae/ha. Format: in vivo.
Data set [11] has the same test system. Briefly: Postemergence herbicide evaluation, overall average % weed control (ABUTH, AMATA, AMBEL, CHEAL, ERICA). The format is in vivo. The settings on record: post-emergence, read-out: Overall Ave % Weed Control; for pest or weed control at 280 g/ha: 280 g ae/ha.
Where [12] appears, read: 168 h, 7 DAA, read-out: Ave. AMATA, percent reduction in plant size relative to the untreated control.
[13] abbreviates: 504 h, 21 DAA, percent reduction in plant size vs untreated control, read-out: Ave. AMATA.
The mark [14] stands for this setting: 168 h, 7 DAA, read-out: AVE. AMBEL, percent reduction in plant size relative to the untreated control.
Setting [15] is: 504 h, 21 DAA, percent reduction in plant size vs untreated control, read-out: AVE. AMBEL.
[16] abbreviates: 168 h, 7 DAA, read-out: AVE. ABUTH, percent reduction in plant size relative to the untreated control.
The mark [17] stands for this setting: 504 h, 21 DAA, percent reduction in plant size vs untreated control, read-out: AVE. ABUTH.
The mark [18] stands for this setting: 168 h, 7 DAA, read-out: Ave. CHEAL, percent reduction in plant size relative to the untreated control.
The mark [19] stands for this setting: 504 h, 21 DAA, percent reduction in plant size vs untreated control, read-out: Ave. CHEAL.
Where [20] appears, read: 168 h, 7 DAA, read-out: Ave. ERICA, percent reduction in plant size relative to the untreated control.
Where [21] appears, read: 504 h, 21 DAA, percent reduction in plant size vs untreated control, read-out: Ave. ERICA.
[22] abbreviates: Zea mays, post-emergence, 504 h, read-out: % Control.

Structures can show the parent of a compound that is named as a salt. Where two headings read alike, the source gives them in different places.

For `COC(=O)c1nc(-c2ccc(Cl)c(OC)c2F)cc(N)c1Cl` [Arylex, halauxifen-methyl, reference compound], the plant injury at 5 g/ha in data set [1] (Zea mays, post-emergence, 504 h, Trial 2 Trt 19, ZEAMX, B2 0 g ae/ha, Arylex 5 g ai or ae/ha alone, 21 DAA) is 70%; in data set [1] (Zea mays, post-emergence, 504 h, Trial Bridge 1, ZEAMX, Arylex 5 g ai or ae/ha alone (compound rate 0), 21 DAA, single replicate), 65%. Further, in [1] (Zea mays, post-emergence, 504 h, Trial 2 Trt 22, ZEAMX, B2 0 g ae/ha, Arylex 6.5 g ai or ae/ha alone, 21 DAA), the plant injury at […] was found to be 75%. Moreover, the pest or weed control at 5 g/ha worked out at 100% in data set [2] (Chenopodium album, post-emergence, 504 h, Trial 2 Trt 19: B2 0 g ae/ha, Arylex 5 g ai or ae/ha alone); 100% in data set [3] (Trial 2 Trt 19, B2 0 g ae/ha, ABUTH, 21 DAA); 100% in data set [3] (Trial Bridge 1 Trt 7, ABUTH, D10 0 g ae/ha, 21 DAA). The pest or weed control at […] in data set [2] (Chenopodium album, post-emergence, 504 h, Trial 2 Trt 22: B2 0 g ae/ha, Arylex 6.5 g ai or ae/ha alone) was 100%. The “% Control” value in data set [2] (Trial Bridge 1, mixing partner alone (D10 at 0 g ae/ha), Arylex 5 g ai or ae/ha) was determined as 100%. Also, the pest or weed control at 65 g/ha in data set [3] (Trial 2 Trt 22, B2 0 g ae/ha, Arylex 65 g ai or ae/ha alone, ABUTH, 21 DAA) was 100%.
`COc1ncc(OC(=O)COc2ccc(Cl)cc2Cl)cn1` [Compound E12]: the pest or weed control at 280 g/ha in data set [4] (setting [12]) was found to be 70%; in data set [4] (336 h, 14 DAA, read-out: Ave. AMATA, percent reduction in plant size relative to the untreated control) it was 80%; in data set [4] (setting [13]), 70%; in data set [5] (setting [14]) it was 75%; in data set [5] (336 h, 14 DAA, read-out: AVE. AMBEL, percent reduction in plant size relative to the untreated control), 70%; in data set [5] (setting [15]), 100%. The pest or weed control at 280 g/ha in data set [6] (setting [16]) came out at 50%; in data set [6] (336 h, 14 DAA, read-out: AVE. ABUTH, percent reduction in plant size relative to the untreated control), 60%; in [6] (setting [17]) it was 65%; in [7] (setting [18]) it was 77.5%; in [7] (336 h, 14 DAA, read-out: Ave. CHEAL, percent reduction in plant size relative to the untreated control) it was 90%; in data set [7] (setting [19]) it was 87.5%. Further, the pest or weed control at 280 g/ha in [8] (setting [20]) was 75%; in [8] (336 h, 14 DAA, read-out: Ave. ERICA, percent reduction in plant size relative to the untreated control), 97.5%; in [8] (setting [21]), 96.5%; in data set [10] (504 h, 280 g ae/ha, 21 DAA), 83.8%; in [11] (168 h, 7 DAA) it was 69.5%; in data set [11] (336 h, 14 DAA), 79.5%. In addition, the pest or weed control at 560 g/ha came out at 75% in [4] (setting [12]); 87.5% in data set [4] (336 h, 14 DAA, percent reduction in plant size vs untreated control, read-out: Ave. AMATA); 87.5% in data set [4] (setting [13]); 77.5% in data set [5] (setting [14]); 90% in data set [5] (336 h, 14 DAA, percent reduction in plant size vs untreated control, read-out: AVE. AMBEL); 100% in data set [5] (setting [15]). Also, the pest or weed control at 560 g/ha came out at 50% in [6] (setting [16]); 52.5% in [6] (336 h, 14 DAA, percent reduction in plant size vs untreated control, read-out: AVE. ABUTH); 62.5% in data set [6] (setting [17]); 80% in data set [7] (setting [18]); 95% in data set [7] (336 h, 14 DAA, percent reduction in plant size vs untreated control, read-out: Ave. CHEAL); 87.5% in data set [7] (setting [19]). Further, the pest or weed control at 560 g/ha in data set [8] (setting [20]) was found to be 85%; in [8] (336 h, 14 DAA, percent reduction in plant size vs untreated control, read-out: Ave. ERICA) it was 100%; in data set [8] (setting [21]), 100%; in data set [10] (336 h, 14 DAA), 85%; in data set [10] (504 h, 21 DAA), 87.5%; in data set [11] (168 h, 560 g ae/ha, 7 DAA) it was 73.5%. Moreover, the “TGA Data (rate of weight loss, volatility)” value in data set [9] is 0.04464 µg/min.
Turning to `CCOc1nc(F)cc2nc(S(=O)(=O)Nc3c(Cl)cccc3Cl)nn12` [Diclosulam], the “% Control” value in data set [1] (Trial Bridge 1, ZEAMX, diclosulam 35 g ai or ae/ha alone (compound rate 0), 21 DAA, single replicate) turned out to be 70%. In data set [1] (Zea mays, post-emergence, 504 h, Trial 2 Trt 13, ZEAMX, B2 0 g ae/ha, Diclosulam 25 g ai or ae/ha alone, 21 DAA), the plant injury at 25 g/ha came out at 80%. Also, the plant injury at 35 g/ha in data set [1] (Zea mays, post-emergence, 504 h, Trial 2 Trt 16, ZEAMX, B2 0 g ae/ha, Diclosulam 35 g ai or ae/ha alone, 21 DAA) was found to be 95%; in [1] (Zea mays, post-emergence, 504 h, Trial Bridge 1, ZEAMX, diclosulam 35 g ai or ae/ha alone (compound rate 0), 21 DAA, single replicate), 70%. Besides, the pest or weed control at 25 g/ha in [2] (Chenopodium album, post-emergence, 504 h, Trial 2 Trt 13: B2 0 g ae/ha, Diclosulam 25 g ai or ae/ha alone) was 40%; in data set [3] (Trial 2 Trt 13, B2 0 g ae/ha, Diclosulam 25 g ai or ae/ha alone, ABUTH, 21 DAA), 100%. Moreover, the pest or weed control at 35 g/ha in [3] (Trial 2 Trt 16, B2 0 g ae/ha, Diclosulam 35 g ai or ae/ha alone, ABUTH, 21 DAA) is 98%; in data set [3] (Trial Bridge 1 Trt 4, ABUTH, D10 0 g ae/ha, diclosulam 35 g ai or ae/ha alone, 21 DAA), 100%.
With `CP(=O)(O)CCC(N)C(=O)O` (stereo not drawn) [Glufosinate, 2-amino-4-(hydroxy(methyl)phosphinyl)butanoic acid ammonium salt], in data set [1] (setting [22]), the plant injury at 200 g/ha was determined as 5% and the plant injury at 900 g/ha came to 10%. The pest or weed control at 200 g/ha in data set [3] (read-out: % Control) was found to be 5%.
